Experimental findings from patent US20240150365A1 (Hotspot Therapeutics, Inc., priority 2022, published 2024) are described below.

One assay deals with T1, MALT1 (Homo sapiens, UniProt Q9UDY8).
T1 construct: Avi-tagged FL MALT-1 (Pharmaron, stored at −70° C.); Avi tag
T1 sequence (Q9UDY8 1-824): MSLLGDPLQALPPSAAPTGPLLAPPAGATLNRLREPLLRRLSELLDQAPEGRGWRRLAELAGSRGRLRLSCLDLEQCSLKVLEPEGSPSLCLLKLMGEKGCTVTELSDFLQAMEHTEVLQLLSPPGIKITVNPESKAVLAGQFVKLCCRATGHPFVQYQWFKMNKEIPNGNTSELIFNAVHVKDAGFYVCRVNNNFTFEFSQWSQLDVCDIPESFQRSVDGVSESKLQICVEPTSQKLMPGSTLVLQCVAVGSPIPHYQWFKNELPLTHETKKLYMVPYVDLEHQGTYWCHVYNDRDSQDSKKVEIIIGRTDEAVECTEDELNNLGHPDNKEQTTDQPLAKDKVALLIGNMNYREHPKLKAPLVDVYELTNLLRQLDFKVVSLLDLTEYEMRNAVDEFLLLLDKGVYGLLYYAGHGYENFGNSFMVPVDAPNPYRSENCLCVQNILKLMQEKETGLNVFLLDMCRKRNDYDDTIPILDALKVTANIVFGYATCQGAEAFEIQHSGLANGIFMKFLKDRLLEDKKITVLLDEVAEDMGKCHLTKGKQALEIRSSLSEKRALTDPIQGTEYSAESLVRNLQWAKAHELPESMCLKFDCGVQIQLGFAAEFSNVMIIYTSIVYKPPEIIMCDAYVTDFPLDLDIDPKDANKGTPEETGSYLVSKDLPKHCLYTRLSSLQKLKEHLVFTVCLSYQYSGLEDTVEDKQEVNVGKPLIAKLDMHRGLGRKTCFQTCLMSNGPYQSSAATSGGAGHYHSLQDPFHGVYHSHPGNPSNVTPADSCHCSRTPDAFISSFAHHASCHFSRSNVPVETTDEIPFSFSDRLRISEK
Kind of assay: MALT-1 Fluorogenic Peptide Cleavage Assay (MALT1 inhibition assay). The format is biochemical. Particulars: Avi-tagged FL MALT-1, Ac-LRSR-AMC peptide substrate, 30 min pre-incubation, 90 min reaction. The method, boiled down:
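IC50 from sigmoidal fits of % inhibition, with fluorescence (ex 342, em 441 nm) from AMC released from the quenched LRSR peptide after 90 min at room temperature. Full-length Avi-tagged MALT1 saw compound for 30 min first; final DMSO 2%.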

A further assay concerns NF-kB. The assay is described as follows: NF-kB reporter assay in Jurkat cells stimulated with aCD3/aCD28/PMA. The format is cell-based. To be noted: Homo sapiens, Jurkat, Jurkat cells, 1 hr compound incubation, aCD3/aCD28/PMA stimulation 4 hr, One-Glo readout; read-out: NF-kB Reporter Assay IC50. The procedure, abridged:
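Stimulation used final aCD3 5 μg/mL, aCD28 5 μg/mL and PMA 0.03 μg/mL for 4 hr at 37° C, after 1 hr compound pretreatment of 25,000 serum-starved Jurkat cells per well. One-Glo luminescence gave IC50 values.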
On the technique in general: Reporter assays use an easily measured gene product as a stand-in for the process of interest.

What is called IC50 is the concentration needed to halve the response being measured. On to `Cn1ncc2cccc(NS(=O)(=O)c3ccc(-c4cccnc4)nc3)c21` [Example I-109, N-(1-Methyl-1H-Indazol-7-yl)-[2,3′-Bipyridine]-5-Sulfonamide], for which the IC50 on MALT1 was over 2500 nM; with NF-kB it was under 400 nM.

Regarding `CN(C)c1ccc(-c2ccc(S(=O)(=O)Nc3cccc4cnn(C)c34)cn2)cn1` [Example I-110, 6′-(Dimethylamino)-N-(1-Methyl-1H-Indazol-7-yl)-[2,3′-Bipyridine]-5-Sulfonamide], the IC50 on MALT1 is over 2500 nM; in the assay on NF-kB it was under 400 nM.

`COc1cccc(-c2ccc(S(=O)(=O)Nc3cccc4cnn(C)c34)cn2)n1` [Example I-111, 6′-Methoxy-N-(1-Methyl-1H-Indazol-7-yl)-[2,2′-Bipyridine]-5-Sulfonamide]: the IC50 on MALT1 is over 2500 nM; with NF-kB, under 400 nM.

For `Cn1cc(-c2ccc(S(=O)(=O)Nc3cccc4cnn(C)c34)cn2)ccc1=O` [Example I-112, 1′-Methyl-N-(1-Methyl-1H-Indazol-7-yl)-6′-Oxo-1′,6′-Dihydro-[2,3′-Bipyridine]-5-Sulfonamide], the half-inhibitory concentration (IC50) against MALT1 and in the assay on NF-kB was over 2500 nM each time.

With `Cc1ncccc1-c1ccc(S(=O)(=O)Nc2cccc3cnn(C)c23)cn1` [Example I-113, 2′-Methyl-N-(1-Methylindazol-7-yl)-[2,3′-Bipyridine]-5-Sulfonamide], the concentration for half-maximal inhibition (IC50) against MALT1 was over 2500 nM; with NF-kB, 400 to 1000 nM.

Consider `Cc1ncncc1-c1ccc(S(=O)(=O)Nc2cccc3cnn(C)c23)cn1` [Example I-115], for which the 50% inhibitory concentration (IC50) against MALT1 and in the assay with NF-kB was over 2500 nM throughout.

Take `Cn1ncc2cccc(NS(=O)(=O)c3ccc(-c4ccncc4)nc3)c21` [Example I-116, N-(1-METHYL-1H-INDAZOL-7-YL)-[2,4′-BIPYRIDINE]-5-SULFONAMIDE]: the IC50 against MALT1 is over 2500 nM; with NF-kB, 400 to 1000 nM.

Regarding `Cn1ccc(-c2ccc(S(=O)(=O)Nc3cccc4cnn(C)c34)cn2)cc1=O` [Example I-117, 1′-Methyl-N-(1-Methyl-1H-Indazol-7-yl)-2′-Oxo-1′,2′-Dihydro-[2,4′-Bipyridine]-5-Sulfonamide], the IC50 against MALT1 and with NF-kB was over 2500 nM each time.

For the compound `Cn1ncc2cccc(NS(=O)(=O)c3ccc(-c4cccc(=O)[nH]4)nc3)c21` [Example I-118, N-(1-Methyl-1H-Indazol-7-yl)-6′-Oxo-1′,6′-Dihydro-[2,2′-Bipyridine]-5-Sulfonamide], the IC50 against MALT1 and in the assay on NF-kB was over 2500 nM in each case.

Take `Cc1cc(-c2ccc(S(=O)(=O)Nc3cccc4cnn(C)c34)cn2)n(C)n1` [Example I-119, 6-(2,5-Dimethylpyrazol-3-yl)-N-(1-Methyl-Indazol-7-yl)Pyridine-3-Sulfonamide]: the results for the IC50 against MALT1 and in the assay on NF-kB were over 2500 nM and under 400 nM, respectively.

As for `Cn1ncc2cccc(NS(=O)(=O)c3ccc(-c4ccncc4F)nc3)c21` [Example I-120, 3′-Fluoro-N-(1-Methylindazol-7-yl)-[2,4′-Bipyridine]-5-Sulfonamide], the IC50 at MALT1 is over 2500 nM; in the assay on NF-kB it was under 400 nM.

For `Cn1ncc2cccc(NS(=O)(=O)c3ccc(-c4cncc(Cl)c4)nc3)c21` [Example I-121, 5′-Chloro-N-(1-Methyl-1H-Indazol-7-yl)-[2,3′-Bipyridine]-5-Sulfonamide], the IC50 at MALT1 is over 2500 nM; in the assay with NF-kB, under 400 nM.

With `Cc1ccc(-c2ccc(S(=O)(=O)Nc3cccc4cnn(C)c34)cn2)cn1` [Example I-122, 6′-Methyl-N-(1-Methyl-1H-Indazol-7-yl)-[2,3′-Bipyridine]-5-Sulfonamide], the results for the 50% inhibitory concentration (IC50) at MALT1 and with NF-kB were over 2500 nM and under 400 nM, respectively.

With `Cc1ccncc1-c1ccc(S(=O)(=O)Nc2cccc3cnn(C)c23)cn1` [Example I-123, 4′-Methyl-N-(1-Methyl-1H-Indazol-7-yl)-2,3′-Bipyridine-5-Sulfonamide], the 50% inhibitory concentration (IC50) against MALT1 was over 2500 nM; with NF-kB, 400 to 1000 nM.
